The record followed here is the OPERA property sets (Mansouri et al. 2018).

`Cc1cc(C)cc(C(=O)N(NC(=O)c2ccccc2)C(C)(C)C)c1`: the melting point was found to be 206 °C.
On to `BrCCCCCCBr`, for which the boiling point amounted to 246 °C and the melting point is -2.3 °C.
The like results for `N#CCc1ccc(N)cc1` were, in that order, 312 °C and 46 °C.
Turning to `CC1=C(C)C2CCC1C2`, the boiling point came out at 140 °C.
Consider `CCOC(=O)/C=C\C(=O)OCC`, for which the boiling point was 218 °C, the log10 vapour pressure (mmHg) is -0.979 and the melting point was -3.65 °C.
Regarding `CC(C=O)Cc1ccc(C(C)(C)C)cc1` (stereo not given), the ready biodegradability result was “not readily biodegradable”.
Regarding `Oc1ccc(-c2ccccc2)cc1Cl`, the melting point was determined as 77 °C.
Take `CCCCC[Si](Cl)(Cl)Cl`: the boiling point was found to be 172 °C.
Still for that read-out and setting: for `CC1CN(C)CCN1C` (stereo not given) the value was 150 °C.
In the case of `COc1cc([C@@H]2c3cc4c(cc3C(O[C@@H]3O[C@@H]5CO[C@@H](C)O[C@H]5[C@H](O)[C@H]3O)C3COC(=O)[C@@H]32)OCO4)cc(OC)c1O` (stereo not given in full), the melting point was 244 °C.
On to `OCCC(O)CO` (stereo not given), for which the boiling point came to 312 °C.
For `CC(CO)CO`, the boiling point was determined as 195 °C, the log10 vapour pressure (mmHg) is -1.68 and the melting point is -91 °C.
For the compound `ClC1=C(Cl)C2(Cl)C3C(Cl)OC(Cl)C3C1(Cl)C2(Cl)Cl` (stereo not given), the log10 vapour pressure (mmHg) was -5.53 and the melting point was found to be 121 °C.
As to `CCOC(=O)c1ccc(C(=O)OCC)cc1`, the boiling point came out at 302 °C and the melting point worked out at 44 °C.
The compound `COc1ccc(CCN2CCC(Nc3nc4ccccc4n3Cc3ccc(F)cc3)CC2)cc1` displayed a melting point of 149 °C.
Still for that read-out and setting: for `CCCCNCC(O)c1ccc(O)cc1` (stereo not given) the value was 124 °C.
In the case of `CCC(C)Cl` (stereo not given), the boiling point was found to be 68 °C, the log10 Henry constant (atm·m³/mol) is -1.62, the log10 vapour pressure (mmHg) was 2.19 and the melting point was -140 °C.
`COc1cccc(Br)c1` showed a boiling point of 211 °C.
Still for that read-out and setting: for `C=CCOC(=O)CC` the value was 124 °C.
For `Nc1ccc(N)nc1`, the melting point is 110 °C and the ready biodegradability entry is “readily biodegradable”.
In turn, `CCCCCCCCCCCCCC(=O)OC(C)C` showed a log10 vapour pressure (mmHg) of -4.03 and a melting point of 3 °C.
For the compound `CCCCCCCCCCCCc1ccc(N)cc1`, the melting point stood at 40.5 °C and the ready biodegradability entry is listed as “readily biodegradable”.
Turning to `CN(C)C(=S)Sc1ccc([N+](=O)[O-])cc1[N+](=O)[O-]`, the melting point is 152 °C.
As for `CCCCCCCCCCCCCC(C)=O`, the boiling point was found to be 294 °C and the melting point turned out to be 39.5 °C.
As to `CC(=O)NCC1(c2ccccc2)CCN(CCCC(=O)c2ccc(F)cc2)CC1`, the melting point was 98.5 °C.
Still for that read-out and setting: for `O=c1cc(CN2CCOCC2)c2cc(O)c(O)cc2o1` the value was 232 °C; for `Cc1ccc(C(=O)NN)cc1`, 117 °C.
Consider `CCSC(C)C`, for which the boiling point amounted to 108 °C and the melting point was -122 °C.
The compound `CCCC(N)C(=O)O` (racemic) displayed a melting point of 305 °C.
`CC(C)C(C)c1ccccc1` (stereo not given) gave a boiling point of 187 °C.
As to `Nc1cccc2c1C(=O)c1cccc(N)c1C2=O`, the melting point is 319 °C.
`C=C(C)C1CC=C(C)C(O)C1` (stereo not given) had a boiling point of 228 °C.
Consider `C[Si](C)(C)O[Si](C)(C)C`, for which the boiling point was found to be 99 °C, the log10 vapour pressure (mmHg) was 1.62 and the melting point is -66 °C.
As for `Cc1cccc(C(=O)O)c1`, the log10 vapour pressure (mmHg) is -3.63, the melting point was determined as 109 °C and the ready biodegradability entry is given as “readily biodegradable”.
As for `C[Si](C)(C)CCCO`, the boiling point was found to be 141 °C.
Regarding `CC(C)(C)c1ccccc1`, the boiling point came to 169 °C, the log10 vapour pressure (mmHg) came to 0.343, the melting point was -57.8 °C and the ready biodegradability result is listed as “readily biodegradable”.
On to `O=S(O)c1ccc(Cl)cc1`, for which the melting point was 99 °C.
For `C=CCC1(C(C)CCC)C(=O)NC(=S)NC1=O` (stereo not given), the melting point is 132 °C.
Consider `COC(=O)CCS`, for which the boiling point amounted to 166 °C and the ready biodegradability result is listed as “readily biodegradable”.
With `CCC(=O)OCCOC(=O)CC`, the boiling point turned out to be 211 °C.
For `CC=CC=C(C)C`, the boiling point is 112 °C and the melting point was -74.2 °C.
Consider `CCCCCCCCc1ccc(O)cc1`, for which the ready biodegradability result is listed as “not readily biodegradable”.
In the case of `CC(C)CC1Nc2cc(Cl)c(S(N)(=O)=O)cc2S(=O)(=O)N1` (stereo not given), the melting point is 222 °C.
The same measure, in the same setting: in the case of `C#C[C@]1(O)CC[C@H]2[C@@H]3CCC4=CCCC[C@@H]4[C@H]3C(=C)C[C@@]21CC` it was 110 °C; in that of `COC(=O)c1ccccc1C(=O)O`, 83 °C.
Regarding `CC1(C)CC=CC1`, the boiling point is 88 °C.
Same read-out and setting: in the case of `CCCN=C=O` it was 83.5 °C.
`C=CC(=O)OCC(CC)(COC(=O)C=C)COC(=O)C=C`: the ready biodegradability result is “not readily biodegradable”.
In the case of `C=CC#CCCC`, the boiling point is 110 °C.
As for `CC[C@@]12CCCN(CCc3c([nH]c4ccccc34)CC1)C2`, the melting point is 146 °C.
The same measure, in the same setting: for `O=C(OCCOCCOC(=O)c1ccccc1)c1ccccc1` the value was 33.5 °C; for `C=CCN(CC=C)C(=O)COC(=O)c1ccccc1`, 42.5 °C.
As to `NCCCCN`, the boiling point was determined as 158 °C and the melting point came out at 27.5 °C.
In turn, `CCCCCCC(=O)OCC` registered a boiling point of 187 °C, a log10 Henry constant (atm·m³/mol) of -3.3, a log10 Koc (L/kg) of 2.61 and a log10 vapour pressure (mmHg) of -0.168. The melting point is -66.1 °C.
As for `Cc1ccno1`, the boiling point came to 122 °C.
As for `O=[N+]([O-])c1cccc(S(=O)(=O)O)c1`, the ready biodegradability entry was “not readily biodegradable”.
Take `CC(O)C(Cl)(Cl)Cl` (stereo not given): the boiling point is 163 °C and the melting point worked out at 50.5 °C.
For `C1CCCCCC1`, the boiling point stood at 118 °C, the log10 vapour pressure (mmHg) came to 1.33 and the melting point is -8 °C.
With `O=C1C2CC=CCC2C(=O)N1SC(Cl)(Cl)Cl` (stereo not given), the log10 Koc (L/kg) worked out at 2.3, the log10 vapour pressure (mmHg) was -7.05, the melting point was 178 °C and the ready biodegradability entry is on record as “not readily biodegradable”.

Usually melting point stands for the temperature of the solid-liquid transition. One may read the boiling point as the temperature at which the vapour pressure of the liquid equals the pressure above it.
